Experimental data published in patent US20040071768A1, “Compositions and methods for treating cancer” (Inex Pharmaceuticals Corporation, priority 1999, published 2004).
Like-named read-outs stand apart in the source and are kept apart here.

Assays:
[1] = for DRD: ICR
Description: Single and multiple (q7dx3) dose MTD studies were performed in tumor-bearing and non-tumor bearing NCr nu/nu mice, as well as healthy, outbred ICR mice.
A comparative (VRL vs. liposomal VRL) toxicity study was performed in healthy, outbred ICR mice.
Parameters evaluated throughout the study included animal weight loss, physical appearance and behavioral changes, blood analysis (CBC and serum chemistry panel), hematopoietic progenitor cell levels in femur bone marrow, and organ weights and gross pathology. Tissues were collected and stored for histology as required.

[2] = cited from earlier work
[3] = clinical hematological toxicity

CCC1=C[C@@H]2CN(C1)Cc1c([nH]c3ccccc13)[C@@](C(=O)OC)(c1cc3c(cc1OC)N(C)[C@H]1[C@@](O)(C(=O)OC)[C@H](OC(C)=O)[C@]4(CC)C=CCN5CC[C@]31[C@@H]54)C2 [VRL, 5′-noranhydrovinblastine]
DRD ([1]; 5 mg/kg q7d x 3): 0/15 | DRD ([1]; 10 mg/kg q7d x 3): 0/15 | DRD ([1]; 20 mg/kg q7d x 3): 0/15 | DRD ([1]; 25 mg/kg q7d x 3): 1/15 | Granulocytopenia ([1]; mouse, in vivo): significant | neutrophil population ([1]; mouse, in vivo): almost completely abolished | spleen weights ([1]; mouse, in vivo): Decreased spleen weights | Max % Wt Loss ([1]; mouse, in vivo, 5 mg/kg): + | Max % Wt Loss ([1]; mouse, in vivo, 10 mg/kg): −3% | Max % Wt Loss ([1]; mouse, in vivo, 20 mg/kg): −3% | Max % Wt Loss ([1]; mouse, in vivo, 25 mg/kg): −5% | anemia [2, 3]: 83% | leukopenia [2, 3]: 92% | thrombocytopenia [2, 3]: 5% | Peripheral neuropathy ([2]; clinical): 25% | phlebitis ([2]; clinical): 7%
